What was measured:
[1] = molecular target: T1, human A1 receptors expressed in CHO membranes (Homo sapiens, UniProt P30542); assay: Allosteric enhancement of specific binding of [3H]CCPA to hCHO-A1 membranes; details: compound tested at 10 μM concentration
T1 construct: expressed in transfected cells; host or cells: CHO cells (hCHO-A1 clone), membrane preparation
T1 sequence (P30542 1-326): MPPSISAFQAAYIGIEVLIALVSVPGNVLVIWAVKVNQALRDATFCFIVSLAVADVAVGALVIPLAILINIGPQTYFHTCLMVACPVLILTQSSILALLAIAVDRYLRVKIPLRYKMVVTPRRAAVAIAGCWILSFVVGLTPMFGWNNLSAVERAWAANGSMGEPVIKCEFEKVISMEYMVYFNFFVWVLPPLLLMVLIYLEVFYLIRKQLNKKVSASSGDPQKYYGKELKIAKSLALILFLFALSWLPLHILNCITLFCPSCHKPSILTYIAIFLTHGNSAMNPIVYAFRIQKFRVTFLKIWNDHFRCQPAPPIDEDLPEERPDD
Procedure: (§1) Membrane Preparation from CHO Cells Transfected with the Human Recombinant A1, A2A and A3 Adenosine Receptors
The hCHO-A1, hCHO-A2A and hCHO-A3 cell clones are grown adherently and maintained in Dulbecco's modified Eagle's medium with nutrient mixture F12, containing 10% fetal calf serum, penicillin (100 U/mL), streptomycin (100 μg/mL), L-glutamine (2 mM), geneticine (G418) 0.2mg/mL at 37° C. in 5% CO2/95% air. 30 min at 37° C. (Klotz et al. Naunyn-Schmied. Arch Pharm. 1998, 357, 1-9). Cells are split two or three times weekly at a ratio of between 1:5 and 1:10. For membrane preparation the culture medium is removed. The cells are washed with PBS and scraped off T75 flasks in ice-cold hypotonic buffer (5 mM Tris HCl, 2 mM EDTA, pH 7.4). The cell suspension is homogenized with Polytron and the homogenate is spun for 10 min at 1,000×g. The supernatant is then centrifuged for 30 min at 100,000×g. […] The protein concentration is determined according to a Bio-Rad method (Bradford, 1976) with bovine albumin as a standard reference.
To determine the effect of the compounds of the present invention on the binding to A1, A2A and A3 receptors, membranes from hCHO-A1, hCHO-A2A, hCHO-A3 are incubated in a buffer solution in the absence and in the presence of the examined compounds. […] Bound and free radioactivity are separated by filtering the assay mixture through Whatman GF/B glass fibre filters using a Micro-mate 196 cell harvester (Packard Instrument Company). The filter bound radioactivity is counted on Top Count Microplate Scintillation Counter (efficacy 57%) with Micro-Scint 20. […]
Competition experiments are carried out in triplicate in a final volume of 250 μL in test tubes containing 1 nM [^3H]CCPA, 50 mM Tris-HCl, pH 7.4 and 100 μL of diluted membranes and at least six to eight different concentrations of the tested compounds in the range from 1 nM to 50 μM for 90 min at 25° C. […] Allosteric enhancement is measured as the action of different concentrations of the tested compounds to increase the specific binding of 1 nM [^3H]CCPA to hCHO-A1 membranes.

[2] = molecular target: T1, human A1 receptors expressed in CHO membranes; assay: Saturation binding of [3H]CCPA to hCHO-A1; details: compound tested at 10 μM concentration
Procedure: as §1
The hCHO-A1, hCHO-A2A and hCHO-A3 cell clones are grown adherently and maintained in Dulbecco's modified Eagle's medium with nutrient mixture F12, containing 10% fetal calf serum, penicillin (100 U/mL), streptomycin (100 μg/mL), L-glutamine (2 mM), geneticine (G418) 0.2mg/mL at 37° C. in 5% CO2/95% air. 30 min at 37° C. (Klotz et al. Naunyn-Schmied. Arch Pharm. 1998, 357, 1-9). Cells are split two or three times weekly at a ratio of between 1:5 and 1:10. For membrane preparation the culture medium is removed. The cells are washed with PBS and scraped off T75 flasks in ice-cold hypotonic buffer (5 mM Tris HCl, 2 mM EDTA, pH 7.4). The cell suspension is homogenized with Polytron and the homogenate is spun for 10 min at 1,000×g. The supernatant is then centrifuged for 30 min at 100,000×g. The membrane pellet is resuspended in 50 mM Tris HCl buffer pH 7.4 for The A1 adenosine receptors, 50 mM Tris HCl buffer pH 7.4, 10 mM MgCl2 for A2A adenosine receptors, 50 mM Tris HCl buffer pH 7.4, 10 mM MgCl2, 1 mM EDTA for A3 adenosine receptors and incubated with 3 Ul/mL of adenosine deaminase for 30 min at 37° C. The protein concentration is determined according to a Bio-Rad method (Bradford, 1976) with bovine albumin as a standard reference.
To determine the effect of the compounds of the present invention on the binding to A1, A2A and A3 receptors, membranes from hCHO-A1, hCHO-A2A, hCHO-A3 are incubated in a buffer solution in the absence and in the presence of the examined compounds. Test agents are dissolved in DMSO and added to the assay from a 100-fold concentrated solution in DMSO. Control incubations also contain 1% DMSO. Bound and free radioactivity are separated by filtering the assay mixture through Whatman GF/B glass fibre filters using a Micro-mate 196 cell harvester (Packard Instrument Company). The filter bound radioactivity is counted on Top Count Microplate Scintillation Counter (efficacy 57%) with Micro-Scint 20.
Saturation Binding of [^3H]CCPA to hCHO-A1 […]

Row | SMILES | increase of the A1 specific binding of the agonist [3H]CCPA to human CHO-A1 membranes [1] | increase in the BMAX value of the agonist [3H]CCPA [2] | melting point [°C]
1 | Nc1sc(-c2cccs2)c(CN(C2CCCCC2)C2CCCCC2)c1C(=O)c1ccc(Cl)cc1 [Example 30, {2-Amino-4-[(dicyclohexylamino)methyl]-5-(thiophen-2-yl)thiophen-3-yl}(4-chlorophenyl)methanone] | ≤ 4.2 fold | ~4.6 fold | 197 to 199
2 | Nc1sc(-c2ccccc2)c(CN(C2CCCCC2)C2CCCCC2)c1C(=O)c1ccc(Cl)cc1 [Example 2, {2-Amino-4-[(dicyclohexylamino)methyl]-5-phenyithiophen-3-yl}(4-chlorophenyl)methanone] | up to 4.4 fold | about 3.5 fold | 
3 | CC(C)(C)CN(Cc1c(-c2ccccc2)sc(N)c1C(=O)c1ccc(Cl)cc1)CC(C)(C)C [Example 16-9, {2-Amino-4-[(dineopentylamino)methyl]-5-phenylthiophen-3-yl}(4-chlorophenyl)methanone] | ≤ 5.5 fold | ~6.3 fold | 

Source: patent US20120108636A1, “Allosteric Enhancers of th A1 Adenosine Receptor” (King Pharmaceuticals Research and Development, Inc., priority 2008, published 2012)
